# From US20220229068A1, “DETECTION OF PROTEIN TO PROTEIN INTERACTIONS” (THE GOVERNING COUNCIL OF THE UNIVERSITY OF TORONTO, priority 2019, published 2022)
# System: MAPK1/ELK1 interaction
# Assay: SIMPL kinase/substrate interactions (ELISA and Western blot)
# Format: cell-based, human
# Settings: kinase-IN / substrate-IC, stimulation
# Description: Cell culture and treatment. HEK 293 and HeLa cell lines were generous gifts from Dr. J. Moffat. HEK 293 Flp-In T-Rex cell line was a generous gift from Dr. A. C. Gingras. These cells were grown in DMEM supplemented with 10% fetal calf serum (Life Technologies). PC9 cell line was a generous gift from Dr. P. Jannes and they were grown in RPMI 1640 medium supplemented with 10% fetal calf serum. For ELISA assay, cells were seeded in 96 well (Sarstedt AG & Co) or 384 well plates (Greiner Bio-One) with 15,000 (96 well) or 5,000 (384 well) cells per well. Cells were transfected with various plasmids with polyethylenimine (PEI) Max (Polysciences). Expression in HEK 293 Flp-In T-Rex cells was induced by treating the cells with tetracycline (1 μg/ml) for 6-16 hrs. […] Stable cell lines were created according to the manual of Flp-In T-REx (Invitrogen). Briefly, plasmid containing both bait and prey DNA and pOG44 plasmid (1:10 ratio) were cotransfected into HEK 293 Flp-In T-Rex cells.
# Western blot analysis and immunoprecipitation. Cells were lysed in buffer H (Triton X 100 1%, β-glycerophosphate pH7.3 50 mM, EGTA 1.5 mM, EDTA 1 mM, orthovanadate 0.1 mM, DTT 1 mM supplemented with protease inhibitors (Roche)). […]
# ELISA. […] The plate was washed 3 times with PBST followed by chemiluminescence reading using SuperSignal ELISA Pico substrate (ThermoFisher). […]
substance,measurement,value
Tetradecanoylphorbol acetate [TPA],MAPK1/ELK1 interaction after MAPK1 activation,enhanced MAPK1/ELK1 interaction
